pIC50: −log10 of the molar value. Where two headings read alike, the source gives them in different places.

Test [1] concerns the target T1, Recombinant STAT6 protein (STAT6 (W123-T658)) (Homo sapiens, UniProt P42226).
T1 construct: Recombinant STAT6 protein (STAT6 (W123-T658))
T1 sequence (P42226 123-658): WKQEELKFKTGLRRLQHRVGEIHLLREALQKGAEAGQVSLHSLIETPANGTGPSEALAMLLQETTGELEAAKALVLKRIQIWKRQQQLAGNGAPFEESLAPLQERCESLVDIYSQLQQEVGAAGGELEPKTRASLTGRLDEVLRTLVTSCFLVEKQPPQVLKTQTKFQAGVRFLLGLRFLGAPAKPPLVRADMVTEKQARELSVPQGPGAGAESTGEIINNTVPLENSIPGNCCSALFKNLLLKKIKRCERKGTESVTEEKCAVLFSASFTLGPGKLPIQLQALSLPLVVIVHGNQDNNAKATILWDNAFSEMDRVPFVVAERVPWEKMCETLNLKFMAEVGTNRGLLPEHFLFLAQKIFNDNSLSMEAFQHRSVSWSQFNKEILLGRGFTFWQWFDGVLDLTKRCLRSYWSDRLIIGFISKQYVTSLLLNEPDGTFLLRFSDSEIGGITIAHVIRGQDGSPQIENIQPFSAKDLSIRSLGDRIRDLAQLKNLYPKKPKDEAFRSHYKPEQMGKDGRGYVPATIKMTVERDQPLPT
The experiment in a line: STAT6 Fluorescence Polarization (FP) Assay. It counts as binding. The settings on record: probe 5-FAM-Ap[…]-NH2 2 nM, 45-minute incubation. The procedure:
STAT6 Fluorescence Polarization (FP) Assay
An FP assay was developed to determine IC50 values for test substances. Recombinant STAT6 protein (STAT6 (W123-T658)) at 250 nM was combined with a fluorescently labeled, phosphotyrosine peptide probe (5-FAM-Ap[…]-NH2) at 2 nM in FP buffer (10 mM HEPES pH 7.4, 50 mM NaCl, 1 mM EDTA, 0.05% Tween 20, 2 mM DTT). 50 μL of STAT6-probe mixture was added to serial diluted compounds in black, 96-well plates (Greiner BioOne 655076) to a final concentration of 1% DMSO. Reaction components were mixed, and FP was measured after 45-minute incubation at room temperature using a Tecan Spark multimode plate reader. FP signal (mP) was plotted against the log concentration of the test substances and IC50 values were calculated by nonlinear regression analysis using GraphPad Prism software. For STAT6 FP assay, A=≤300 nM; B=>300-3000 nM; C=>3-30 μM; and D=>30 μM.
In general terms: Fluorescence polarisation rises when a labelled molecule tumbles more slowly, as on binding a larger partner.

The target of test [2] is T2, Recombinant STAT3 protein (STAT3 (G127-I722)) (Homo sapiens, UniProt P40763).
T2 construct: Recombinant STAT3 protein (STAT3 (G127-I722))
T2 sequence (P40763 127-722): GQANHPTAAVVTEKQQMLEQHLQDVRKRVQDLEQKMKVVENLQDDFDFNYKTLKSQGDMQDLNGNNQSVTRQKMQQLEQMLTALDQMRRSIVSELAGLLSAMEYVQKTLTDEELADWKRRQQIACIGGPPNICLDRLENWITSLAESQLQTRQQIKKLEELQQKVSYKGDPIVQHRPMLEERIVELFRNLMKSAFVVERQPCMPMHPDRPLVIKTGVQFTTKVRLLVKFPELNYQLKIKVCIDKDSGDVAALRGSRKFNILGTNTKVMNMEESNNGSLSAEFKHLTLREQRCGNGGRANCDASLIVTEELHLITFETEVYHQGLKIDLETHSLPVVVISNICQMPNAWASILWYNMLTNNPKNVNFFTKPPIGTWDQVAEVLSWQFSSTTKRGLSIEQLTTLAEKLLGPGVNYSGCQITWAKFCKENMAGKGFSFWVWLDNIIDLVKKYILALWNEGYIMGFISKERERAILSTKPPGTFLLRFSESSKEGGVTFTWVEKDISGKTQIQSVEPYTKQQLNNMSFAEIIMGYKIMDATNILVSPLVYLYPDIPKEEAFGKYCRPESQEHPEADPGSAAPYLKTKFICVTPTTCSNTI
The experiment in a line: STAT3 Fluorescence Polarization (FP) Assay. The settings on record: probe 5-FAM-GpYLPQTV-NH2 2 nM, 45-minute incubation. The format is binding. The method, then: STAT3 Fluorescence Polarization (FP) Assay
An FP assay was developed to determine IC50 values for test substances. Recombinant STAT3 protein (STAT3 (G127-I722)) at 25 nM was combined with a fluorescently labeled, phosphotyrosine peptide probe (5-FAM-GpYLPQTV-NH2) at 2 nM in FP buffer (10 mM HEPES pH 7.4, 50 mM NaCl, 1 mM EDTA, 0.05% Tween 20.2 mM DTT). 50 μL of STAT3-probe mixture was added to serial diluted compounds in black, 96-well plates (Greiner BioOne 655076) to a final concentration of 1% DMSO. Reaction components were mixed, and FP was measured after 45-minute incubation at room temperature using a Tecan Spark multimode plate reader. FP signal (mP) was plotted against the log concentration of the test substances and IC50 values were calculated by nonlinear regression analysis using GraphPad Prism software. For STAT3 FP assay, A=≤100 nM; B=>100-1000 nM; C=>1-10 μM; and D=>10 μM.

Where [3] appears, read: STAT6 250 nM, read-out: STAT6 (FP assay IC50).
The mark [4] stands for this setting: STAT3 25 nM, read-out: STAT3 (FP assay IC50).
[5] abbreviates: STAT6 (W123-T658) 250 nM, read-out: STAT6 (FP assay IC50 class).
[6] abbreviates: STAT3 (G127-I722) 25 nM, read-out: STAT3 (FP assay IC50 class).

Usually pIC50 stands for the negative decadic logarithm of the IC50, by convention in mol/L. `N#C[C@H]1CN(C(=O)[C@@H]2CC[C@@H]3CC[C@@H](N4CCC4)C[C@H](NC(=O)c4cc5cc(C(F)(F)P(=O)(O)O)ccc5s4)C(=O)N32)C[C@@H]1c1ccccc1` (mixture of isomers) [Compound 23, ((2-(((3S,6S,8R,10aS)-8-(azetidin-1-yl)-3-(rel- trans)-3-cyano-4-phenylpyrrolidine-1-carbonyl)-5-oxodecahydropyrrolo [1,2-a]azocin-6-yl)carbamoyl)benzo[b]thiophen-5-yl)difluoromethyl) phosphonic acid]: the negative logarithm of the IC50 (pIC50) in test [1] (setting [3]) is 5.52 to 6.52; in test [2] (setting [4]), 5.00 to 6.00.

As for `N#C[C@H]1CN(C(=O)[C@@H]2CC[C@@H]3CCCC[C@H](NC(=O)c4ccc5ccc(C(F)(F)P(=O)(O)O)cc5c4)C(=O)N32)C[C@@H]1c1ccccc1` (mixture of isomers) [Compound 28, ((7-(((3S,6S,10aS)-3-(rel- trans)-3-cyano-4-phenylpyrrolidine-1-carbonyl)-5-oxodecahydropyrrolo [1,2-a]azocin-6-yl)carbamoyl)naphthalen-2-yl) difluoromethyl) phosphonic acid], the pIC50 in test [1] (setting [3]) is at least 6.52; in test [2] (setting [4]), 5.00 to 6.00.

Consider `N#C[C@@H]1CN(C(=O)[C@@H]2CC[C@@H]3CCCCC[C@H](NC(=O)c4cc5cc(C(F)(F)P(=O)(O)O)ccc5s4)C(=O)N32)C[C@H]1c1ccccc1` (mixture of isomers) [Compound 74, ((2-(((3S,6S,11aS)-3-((rel- trans)-3-cyano-4-phenylpyrrolidine-1-carbonyl)-5-oxodecahydro-1H-pyrrolo[1,2-a]azonin-6-yl)carbamoyl)benzo[b]thiophen-5-yl)difluoromethyl) phosphonic acid], for which the pIC50 is at least 6.52 in test [1] (setting [3]) and 5.00 to 6.00 in test [2] (setting [4]).

On to `N#CC1CN(C(=O)[C@@H]2C[C@@H](O)[C@@H]3C/C=C\C[C@H](NC(=O)c4cc5cc(C(F)(F)P(=O)(O)O)ccc5s4)C(=O)N23)CC1c1ccccc1` (mixture of isomers) [Compound 729, ((2-(((1R,3S,6S,10aS,Z)-3-((rel-trans)-3-cyano-4-phenylpyrrolidine-1-carbonyl)-1-hydroxy-5-oxo-1,2,3,5,6,7,10,10a-octahydropyrrolo[1,2-a]azocin-6-yl)carbamoyl)benzo [b]thiophen-5-yl)difluoromethyl) phosphonic acid], for which the results for the pIC50 in test [1] (setting [5]) and in test [2] (setting [6]) were at least 6.52 and 6.00 to 7.00, respectively.

Turning to `O=C(NC1CCCCC2CCC(C(=O)N3CC(O)C(n4ccnn4)C3)N2C1=O)c1ccc2ccc(C(F)(F)P(=O)(O)O)cc2c1` (mixture of isomers) [Compound 871, (difluoro(7-(((3S,6S,10aS)-3-((rel-trans)-3-hydroxy-4-(1H-1,2,3-triazol-1-yl)pyrrolidine-1-carbonyl)-5-oxodecahydropyrrolo[1,2-a]azocin-6-yl)carbamoyl)naphthalen-2-yl)methyl) phosphonic acid], the negative-log IC50 (pIC50) in test [1] (setting [5]) is 5.52 to 6.52; in test [2] (setting [6]), 5.00 to 6.00.

Turning to `COc1cc(C2CN(C(=O)C3CCC4CCCCC(NC(=O)c5cc6cc(C(F)(F)P(=O)(O)O)ccc6s5)C(=O)N43)CC2C#N)cc(C)n1` (mixture of isomers) [Compound 874, ((2-(((3S,6S,10aS)-3-((rel-trans)-3-cyano-4-(2-methoxy-6-methylpyridin-4-yl)pyrrolidine-1-carbonyl)-5-oxodecahydropyrrolo[1,2-a]azocin-6-yl)carbamoyl)benzo [b]thiophen-5-yl)difluoromethyl) phosphonic acid], the negative-log IC50 (pIC50) is 5.52 to 6.52 in test [1] (setting [5]) and 5.00 to 6.00 in test [2] (setting [6]).

Regarding `N#C[C@@H]1CN(C(=O)[C@@H]2CCC[C@@H]3CCCC[C@H](NC(=O)c4cc5cc(C(F)(F)P(=O)(O)O)ccc5s4)C(=O)N32)CC1c1ccccc1` (mixture of isomers) [Compound 63, ((2-(((4S,7S,11aS)-4-(rel-(trans)-3-cyano-4-phenylpyrrolidine-1-carbonyl)-6-oxodecahydro-2H-pyrido[1,2-a]azocin-7-yl)carbamoyl)benzo[b]thiophen-5-yl)difluoromethyl) phosphonic acid], the negative-log IC50 (pIC50) in test [1] (setting [3]) was at least 6.52; in test [2] (setting [4]) it was 6.00 to 7.00.

Regarding `N#C[C@H]1CN(C(=O)[C@@H]2CC[C@@H]3CCCCC[C@H](NC(=O)c4cc5cc(C(F)(F)P(=O)(O)O)ccc5s4)C(=O)N32)C[C@@H]1c1ccccc1` (racemic) [Compound 75, ((2-(((3S,6S,11aS)-3-(rel-(trans)-3-cyano-4-phenylpyrrolidine-1-carbonyl)-5-oxodecahydro-1H-pyrrolo[1,2-a]azonin-6-yl)carbamoyl)benzo[b]thiophen-5-yl)difluoromethyl) phosphonic acid], the negative logarithm of the IC50 (pIC50) in test [1] (setting [3]) is at least 6.52; in test [2] (setting [4]), 5.00 to 6.00.

On to `N#C[C@H]1CN(C(=O)[C@@H]2CC[C@@H]3CCCC[C@H](NC(=O)c4cc5cc(C(F)(F)P(=O)(O)O)ccc5s4)C(=O)N32)C[C@@H]1CC1CCOCC1` (racemic) [Compound 88, ((2-(((3S,6S,10aS)-3-(rel-(trans)-3-cyano-4-((tetrahydro-2H-pyran-4-yl)methyl)pyrrolidine-1-carbonyl)-5-oxodecahydropyrrolo [1,2-a]azocin-6-yl)carbamoyl)benzo[b]thiophen-5-yl)difluoromethyl) phosphonic acid], for which the negative-log IC50 (pIC50) in test [1] (setting [3]) was 5.52 to 6.52; in test [2] (setting [4]), 5.00 to 6.00.

On to `N#C[C@H]1CN(C(=O)[C@@H]2CC[C@@H]3CCCC[C@H](NC(=O)c4cc5cc(C(F)(F)P(=O)(O)O)ccc5s4)C(=O)N32)C[C@@H]1C1CCCCC1` (racemic) [Compound 91, ((2-(((3S,6S,10aS)-3-(rel-(trans)-3-cyano-4-cyclohexyl-pyrrolidine-1-carbonyl)-5-oxodecahydropyrrolo [1,2-a]azocin-6-yl)carbamoyl)benzo[b]thiophen-5-yl)difluoromethyl) phosphonic acid], for which the pIC50 in test [1] (setting [3]) is at least 6.52; in test [2] (setting [4]), 5.00 to 6.00.

As for `N#C[C@H]1CN(C(=O)[C@@H]2CC[C@@H]3CCCC[C@H](NC(=O)c4cc5cc(C(F)(F)P(=O)(O)O)ccc5s4)C(=O)N32)C[C@@H]1c1ccc2cn[nH]c2c1` (racemic) [Compound 99, ((2-(((3S,6S,10aS)-3-(rel-(trans)-3-cyano-4-(1H-indazol-6-yl)pyrrolidine-1-carbonyl)-5-oxodecahydropyrrolo [1,2-a]azocin-6-yl)carbamoyl)benzo[b]thiophen-5-yl)difluoromethyl) phosphonic acid], the negative logarithm of the IC50 (pIC50) was 5.52 to 6.52 in test [1] (setting [3]) and 6.00 to 7.00 in test [2] (setting [4]).

In the case of `COc1cccc([C@H]2CN(C(=O)[C@@H]3CC[C@@H]4CCCC[C@H](NC(=O)c5cc6cc(C(F)(F)P(=O)(O)O)ccc6s5)C(=O)N43)C[C@@H]2C#N)n1` (racemic) [Compound 105, ((2-(((3S,6S,10aS)-3-(rel-(trans) 3-cyano-4-(6-methoxypyridin-2-yl)pyrrolidine-1-carbonyl)-5-oxodecahydropyrrolo [1,2-a]azocin-6-yl)carbamoyl)benzo[b]thiophen-5-yl)difluoromethyl) phosphonic acid], the pIC50 in test [1] (setting [3]) is at least 6.52; in test [2] (setting [4]) it was 6.00 to 7.00.
